Experimental data from patent US20170050957A1, “4-AMINO-6-(HETEROCYCLIC)PICOLINATES AND 6-AMINO-2-(HETEROCYCLIC)PYRIMIDINE-4-CARBOXYLATES AND THEIR USE AS HERBICIDES” (Dow AgroSciences LLC, priority 2013, published 2017).
Where two headings read alike, the source gives them in different places.

Legend:
[1] = system: Key Broadleaf Weed and Crop Species; experiment: Post-emergent Test II herbicidal activity (Table 15); assay type: in vivo; settings: post-emergence, 336 h, 140 g ai/ha, 14 d
Experimental: (§1) Post-emergent Test II: Seeds or nutlets of the desired test plant species were planted in Sun Gro Metro-Mix® 360 planting mixture, which typically has a pH of 6.0 to 6.8 and an organic matter content of about 30 percent, in plastic pots with a surface area of 64 square centimeters. When required to ensure good germination and healthy plants, a fungicide treatment and/or other chemical or physical treatment was applied. The plants were grown for 7-21 d in a greenhouse with an approximate 15 h photoperiod which was maintained at about 23-29° C. during the day and 22-28° C. during the night. Nutrients and water were added on a regular basis and supplemental lighting was provided with overhead metal halide 1000-Watt lamps as necessary. The plants were employed for testing when they reached the first or second true leaf stage.
(§2) A weighed amount, determined by the highest rate to be tested, of each test compound was placed in a 25 mL glass vial and was dissolved in 4 mL of a 97:3 v/v mixture of acetone and DMSO to obtain concentrated stock solutions. […] The concentrated stock solutions obtained were diluted with 20 mL of an aqueous mixture containing acetone, water, isopropyl alcohol, DMSO, Atplus 411F crop oil concentrate, and Triton® X-155 surfactant in a 48.5:39:10:1.5:1.0:0.02 v/v ratio to obtain spray solutions containing the highest application rates. Additional application rates were obtained by serial dilution of 12 mL of the high rate solution into a solution containing 2 mL of 97:3 v/v mixture of acetone and DMSO and 10 mL of an aqueous mixture containing acetone, water, isopropyl alcohol, DMSO, Atplus 411F crop oil concentrate, and Triton X-155 surfactant in a 48.5:39:10:1.5:1.0:0.02 v/v ratio to obtain 1/2×, 1/4×, 1/8× and 1/16× rates of the high rate. Compound requirements are based upon a 12 mL application volume at a rate of 187 liters per hectare (L/ha). Formulated compounds were applied to the plant material with an overhead Mandel track sprayer equipped with 8002E nozzles calibrated to deliver 187 L/ha over an application area of 0.503 square meters at a spray height of 18 inches (43 cm) above the average plant canopy height. Control plants were sprayed in the same manner with the solvent blank.
(§3) The treated plants and control plants were placed in a greenhouse as described above and watered by subirrigation to prevent wash-off of the test compounds. After 14 d, the condition of the test plants as compared with that of the untreated plants was determined visually and scored on a scale of 0 to 100 percent where 0 corresponds to no injury and 100 corresponds to complete kill.

[2] = system: Key Grass and Sedge Weeds as well as Grass Crops; experiment: Post-emergent Test II herbicidal activity (Table 16); assay type: in vivo; settings: post-emergence, 336 h, 140 g ai/ha, 14 days after application
Experimental: as §1, §2, §3

[3] = Abutilon theophrasti, velvetleaf (Abutilon theophrasti), read-out: Visual Growth Reduction (%) 14 Days After Application, ABUTH
[4] = Brassica napus, oilseed rape, canola (Brassica napus), read-out: Visual Growth Reduction (%) 14 Days After Application, BRSNN
[5] = Chenopodium album, lambsquarters (Chenopodium album), read-out: Visual Growth Reduction (%) 14 Days After Application, CHEAL
[6] = Euphorbia heterophylla, wild poinsettia (Euphorbia heterophylla), read-out: Visual Growth Reduction (%) 14 Days After Application, EPHHL
[7] = Helianthus annuus, sunflower (Helianthus annuus), read-out: Visual Growth Reduction (%) 14 Days After Application, HELAN
[8] = Cyperus esculentus, yellow nutsedge (Cyperus esculentus), read-out: Visual Growth Reduction (%) 14 Days After Application CYPES
[9] = Echinochloa crus-galli, barnyardgrass (Echinochloa crus-galli), read-out: Visual Growth Reduction (%) 14 Days After Application ECHCG
[10] = Oryza sativa, rice (Oryza sativa), read-out: Visual Growth Reduction (%) 14 Days After Application ORYSA
[11] = Setaria faberi, giant foxtail (Setaria faberi), read-out: Visual Growth Reduction (%) 14 Days After Application SETFA
[12] = Triticum aestivum, wheat, spring (Triticum aestivum), read-out: Visual Growth Reduction (%) 14 Days After Application TRZAS
[13] = Zea mays, maize, corn (Zea mays), read-out: Visual Growth Reduction (%) 14 Days After Application ZEAMX

Row | SMILES | pest or weed control at 140 g/ha [1, 3] | pest or weed control at 140 g/ha ([1]; Amaranthus retroflexus, redroot pigweed (Amaranthus retroflexus), read-out: Visual Growth Reduction (%) 14 Days After Application, AMARE) | pest or weed control at 140 g/ha [1, 4] | pest or weed control at 140 g/ha [1, 5] | pest or weed control at 140 g/ha [1, 6] | pest or weed control at 140 g/ha [1, 7] | pest or weed control at 140 g/ha [2, 8] | pest or weed control at 140 g/ha [2, 9] | pest or weed control at 140 g/ha [2, 10] | pest or weed control at 140 g/ha [2, 11] | pest or weed control at 140 g/ha [2, 12] | pest or weed control at 140 g/ha [2, 13] | melting point
1 | Nc1c(F)c(-c2cccc3ccsc23)nc(C(=O)O)c1Cl [Compound 3.25] | 0 to 29% | 95 to 100% | 75 to 84% | 95 to 100% | 0 to 29% | 45 to 59% | 0 to 29% | 0 to 29% | 0 to 29% | 0 to 29% | 0 to 29% | 0 to 29% | 183 to 185 °C
2 | COC(=O)c1nc(-c2ccc3cnn(C)c3c2)c(F)c(N)c1Cl [Compound 4.07] | 45 to 59% |  | 45 to 59% | 0 to 29% | 60 to 74% | 95 to 100% | 0 to 29% | 0 to 29% | 0 to 29% | 0 to 29% | 0 to 29% | 0 to 29% | 187 to 190 °C
3 | Cn1ncc2ccc(-c3nc(C(=O)O)c(Cl)c(N)c3F)cc21 [Compound 4.08] | 0 to 29% |  | 60 to 74% | 95 to 100% | 0 to 29% | 85 to 94% | 0 to 29% | 0 to 29% | 0 to 29% | 0 to 29% | 0 to 29% | 0 to 29% | 182 to 184 °C
